# Measured values reported in article PMC4922569, “Antifibrotic Effects of the Dual CCR2/CCR5 Antagonist Cenicriviroc in Animal Models of Liver and Kidney Fibrosis” (PLoS ONE, 2016).
# Structures can show the parent of a compound that is named as a salt.
# Columns and labels:
# [1] = test system: TAA-induced liver fibrosis; experiment: Rat model of thioacetamide (TAA)-induced liver fibrosis; assay type: in vivo; conditions: for Reduction in liver collagen deposition vs vehicle control: picrosirius red; for Reduction in protein expression of alpha-SMA vs vehicle control / Reduction in protein expression of collagen type 1 vs vehicle control: western blot, not statistically significant
# Description: The TAA model is commonly used for the evaluation of treatment at various stages of disease, from inflammation to cirrhosis. The protocol was approved by the Mount Sinai IACUC (approval number: LA12-00318) and animals were maintained according to the NIH guidelines. Anesthesia was performed with 1–5% isoflurane through inhalation; surgery was terminal.
# (§1) Using male Sprague-Dawley rats (n = 72, 10–12 weeks of age; Harlan Laboratories, USA), fibrosis was induced by IP administration of TAA at a dose of 150 mg/kg three times per week for 8 weeks. Rats (n = 4–8/group) received vehicle control, CVC 30 mg/kg/day (CVC30) or CVC100 QD PO during Weeks 0–8 (early intervention), Weeks 4–8 (established fibrosis) or Weeks 8–12 (cirrhosis reversal) and were sacrificed at Weeks 8, 8 or 12, respectively (S1 Table). Study endpoints included: body and liver weights, liver biochemistry (e.g. serum alanine and aspartate aminotransferase [ALT/AST]), extracellular matrix protein expression in liver tissue (collagen type 1 and alpha-SMA), mRNA expression (collagen type 1, alpha-SMA, beta-platelet-derived growth factor-beta receptor, TGF beta-receptor, matrix metalloproteinase 2, tissue inhibitor of metalloproteinases 1 [TIMP1] and 2 [TIMP2]) and liver morphology. For liver-function testing, plasma samples were obtained from blood collected from the vena cava. Livers were sectioned and fixed in 3.7% formalin, embedded in paraffin, cut at […] thickness and stained with hematoxylin and eosin (H&E) for histological examination.
# In the TAA model, serum ALT/AST levels were measured using VITROS® 5,1 FS (Ortho Clinical Diagnostics, USA), with plasma diluted with VITROS® 7% bovine serum albumin if needed. In the NASH model, plasma ALT levels were measured by FUJI DRI-CHEM 7000 (Fujifilm, Japan) and plasma CCL2 concentration quantified by the mouse CCL2/JE/MCP-1 immunoassay kit (R&D, USA).
# Collagen deposition (the extent of fibrosis) was visualized in liver/kidney sections with picrosirius red staining. In the TAA model, collagen quantification was performed using computerized Life Science morphometry system (BIOQUANT, USA) on a total of 36 images per animal at 100x magnification (four picrosirius red-stained slides per animal, with nine images taken randomly per slide).
# In the TAA model, total protein was extracted from liver cells and expression levels of collagen type 1 and alpha-SMA were assessed by western blotting. Protein expression levels were normalized to the reference protein (glyceraldehyde-3-phosphate dehydrogenase [GAPDH] or calnexin).
# In the hepatic-fibrosis models, RNA was extracted from liver tissues and purified, and 1 μg of total mRNA was reverse-transcribed into complementary DNA. Expression levels were determined by quantitative polymerase chain reaction (PCR) (iQ™ SYBR® Green Supermix [Bio-Rad Laboratories, USA] on the LightCycler® 480 Real-Time PCR System [Roche, Switzerland]) in the TAA model at Week 8 (early intervention and established fibrosis) and Week 12 (cirrhosis reversal), and by real-time PCR (PCR Dice® and SYBR® Premix Ex Taq™ [Takara Bio Inc., Japan]) at Week 9 in the NASH model.
# Relative mRNA expression levels were normalized to the following reference genes: TAA model, GAPDH; NASH model, 36B4 (gene symbol: Rplp0); UUO model, hypoxanthine phosphoribosyltransferase.
# Data are presented as ±standard error of the mean (SEM) in the TAA model. Statistical significance was determined by the two-tailed Student’s t test.
# [2] = Body and liver weights, TAA model; assay type: in vivo, rat; conditions: average±SD
# Description: as §1
# Body weight (measured before and during treatment) and sacrificed animal body and liver/kidney/spleen weights were recorded.
# [3] = test system: hepatic fibrosis scores (APRI, FIB-4, ELF); conditions: cited from earlier work
# [4] = cirrhosis reversal, CVC 30 mg/kg/day
# [5] = cirrhosis reversal, CVC 100 mg/kg/day
# [6] = early intervention, CVC 30 mg/kg/day
# [7] = early intervention, CVC 100 mg/kg/day
# [8] = established fibrosis, CVC 30 mg/kg/day
# [9] = established fibrosis, CVC 100 mg/kg/day
# [10] = between Baseline and Week 24, maintained at Week 48
smiles,measurement,setting,value
"CCCCOCCOc1ccc(-c2ccc3c(c2)/C=C(/C(=O)Nc2ccc([S@@+]([O-])Cc4cncn4CCC)cc2)CCCN3CC(C)C)cc1 [CVC, cenicriviroc mesylate]","mRNA expression of the fibrosis markers assessed, CVC vs vehicle control",[1]; TAA model,no significant changes
same,"ALT levels, CVC-treated vs vehicle-control groups","[1]; TAA model, all groups",no significant differences
same,Reductions in collagen type 1 and alpha-SMA protein expression,[1]; advanced disease cirrhosis group,No reductions
same,"Histologic differences between groups, H&E-stained liver sections",[1]; all TAA groups,No histologic differences
same,Reduction in collagen deposition,"[1]; cirrhosis-reversal group, CVC treatment started at Week 8 (Weeks 8-12)",No significant reduction
same,Reduction in liver collagen deposition vs vehicle control,"[1]; early intervention (Weeks 0-8), CVC30 QD PO",48.5%
same,Reduction in liver collagen deposition vs vehicle control,"[1]; early intervention (Weeks 0-8), CVC100 QD PO",37.5%
same,AST levels vs vehicle control,"[1]; early intervention group, CVC30, p < 0.05",significantly decreased
same,Reduction in protein expression of alpha-SMA vs vehicle control,"[1]; early intervention, CVC30",17%
same,Reduction in protein expression of collagen type 1 vs vehicle control,"[1]; early intervention, CVC30",29%
same,Reduction in protein expression of alpha-SMA vs vehicle control,"[1]; early intervention, CVC100",22%
same,Reduction in protein expression of collagen type 1 vs vehicle control,"[1]; early intervention, CVC100",12%
same,Reduction in liver collagen deposition vs vehicle control,"[1]; established fibrosis (Weeks 4-8), CVC30 QD PO",35.7%
same,Significant antifibrotic effect (collagen deposition) observed,"[1]; established fibrosis (Weeks 4-8), CVC100 QD PO",not
same,Reduction in protein expression of alpha-SMA vs vehicle control,"[1]; established fibrosis, CVC30",14%
same,Reduction in protein expression of collagen type 1 vs vehicle control,"[1]; established fibrosis, CVC30",30%
same,Final body weight,[2]; [4],390.3 ± 9.3 g
same,Liver weight,[2]; [4],19 ± 0.7 g
same,Liver-to-body weight ratio,[2]; [4],4.9±0.2%
same,Final body weight,[2]; [5],386.4 ± 4.9 g
same,Liver weight,[2]; [5],18.5 ± 0.7 g
same,Liver-to-body weight ratio,[2]; [5],4.8±0.2%
same,Final body weight,[2]; [6],330.9 ± 6.4 g
same,Liver weight,[2]; [6],17.9 ± 1.6 g
same,Liver-to-body weight ratio,[2]; [6],5.4±0.5%
same,Final body weight,[2]; [7],347.2 ± 6.9 g
same,Liver weight,[2]; [7],17.5 ± 0.5 g
same,Liver-to-body weight ratio,[2]; [7],5.0±0.1%
same,Final body weight,[2]; [8],342.0 ± 7.7 g
same,Liver weight,[2]; [8],15.6 ± 0.6 g
same,Liver-to-body weight ratio,"[2]; established fibrosis, CVC 30 mg/kg/day, p < 0.05 vs vehicle control",4.6±0.1 %
same,Final body weight,[2]; [9],327.3 ± 7.8 g
same,Liver weight,[2]; [9],15.8 ± 0.9 g
same,Liver-to-body weight ratio,[2]; [9],4.8±0.2%
same,Enhanced liver fibrosis (ELF) scores,"[3]; Week 48, p < 0.0001",significant reduction
same,Decrease in proportion of subjects with APRI score ≥0.5,[3]; [10],75%
same,Decrease in proportion of subjects with FIB-4 score ≥1.45,[3]; [10],73%
